Source: ChEMBL document CHEMBL4130388, “Recent advances of pyrazole-containing derivatives as anti-tubercular agents” (Eur J Med Chem, 2017)
pIC50: −log10 of the molar value. Converted amounts (≈) assume the structure as drawn.

Legend:
[1] = test system: Mycobacterium tuberculosis; assay: Antitubercular activity against Mycobacterium tuberculosis H37Rv by Lowensteine-Jensen method; format: functional
[2] = test system: Mycobacterium tuberculosis; assay: Antitubercular activity against Mycobacterium tuberculosis H37Rv; format: functional
HepG2 = assay: Cytotoxicity against human HepG2 cells; format: cell-based
[3] = test system: Mycobacterium tuberculosis; assay: Antitubercular activity against Mycobacterium tuberculosis H37Rv ATCC 27294 at 6.25 ug/ml by BACTEC radiometric method relative to control; format: functional
[4] = test system: Mycobacterium tuberculosis; assay: Growth inhibition of Mycobacterium tuberculosis H37Rv ATCC 27294 at 6.25 ug/ml by BACTEC radiometric method relative to control; format: functional; details: read-out: GI
[5] = test system: Mycobacterium tuberculosis; assay: Antitubercular activity against Mycobacterium tuberculosis H37Rv by broth dilution method; format: functional
[6] = test system: Mycobacterium tuberculosis; assay: Antitubercular activity against Mycobacterium tuberculosis; format: functional
[7] = test system: Mycobacterium tuberculosis; assay: Potency index, ratio of pyrazinamide MIC to compound MIC for Mycobacterium tuberculosis; format: functional
[8] = test system: Mycobacterium tuberculosis; assay: Growth inhibition of Mycobacterium tuberculosis H37Rv at 62.5 ug/ml by broth dilution method relative to control; format: functional; details: read-out: GI
[9] = test system: Mycobacterium tuberculosis; assay: Potency index, ratio of pyrazinamide MIC to compound MIC for Mycobacterium tuberculosis H37Rv; format: functional
[10] = test system: Mycobacterium tuberculosis; assay: Antitubercular activity against Mycobacterium tuberculosis spec.192; format: functional
[11] = test system: Mycobacterium tuberculosis; assay: Antitubercular activity against Mycobacterium tuberculosis spec.210; format: functional
Pantothenate synthetase = target: T1, Pantothenate synthetase (Mycobacterium tuberculosis, UniProt P9WIL5); assay: Inhibition of Mycobacterium tuberculosis pantothenate synthetase
T1 sequence (P9WIL5 whole entry): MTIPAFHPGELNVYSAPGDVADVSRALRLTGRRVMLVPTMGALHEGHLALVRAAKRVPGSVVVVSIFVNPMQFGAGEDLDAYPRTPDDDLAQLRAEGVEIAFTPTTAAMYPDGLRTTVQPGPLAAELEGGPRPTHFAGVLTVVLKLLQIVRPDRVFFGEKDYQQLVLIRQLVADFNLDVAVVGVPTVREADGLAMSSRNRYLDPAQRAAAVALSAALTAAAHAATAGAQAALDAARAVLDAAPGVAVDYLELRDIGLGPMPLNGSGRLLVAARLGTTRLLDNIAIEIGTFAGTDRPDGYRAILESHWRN

[12] = target: T2, Enoyl-[acyl-carrier-protein] reductase [NADH] (Mycobacterium tuberculosis, UniProt P9WGR1); assay: Inhibition of Mycobacterium tuberculosis InhA using DDCoA as substrate in presence of NADH by fluorimetric method
T2 sequence (P9WGR1 whole entry): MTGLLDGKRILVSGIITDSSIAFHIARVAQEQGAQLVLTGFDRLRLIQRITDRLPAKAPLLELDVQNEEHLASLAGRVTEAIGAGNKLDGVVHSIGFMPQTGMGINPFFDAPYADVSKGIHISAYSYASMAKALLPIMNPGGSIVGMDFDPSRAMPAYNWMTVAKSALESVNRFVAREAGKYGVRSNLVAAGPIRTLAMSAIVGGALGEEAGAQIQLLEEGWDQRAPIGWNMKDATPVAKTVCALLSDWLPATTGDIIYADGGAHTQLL

SMILES: COc1cccc(C2C(Cl)C(=O)N2C(=O)NCCCn2ncc3ccc([N+](=O)[O-])cc32)c1 (stereo not drawn)
- MIC [1]: 6.25 to 50 mg/L (≈ 13.7 to 109 µM)

SMILES: CC1=NN(C(=O)c2cc(-c3ccc(Cl)cc3)n[nH]2)C(=O)/C1=N\Nc1ccc(Cl)cc1
- MIC [2]: 0.6 mg/L
- pIC50 (HepG2): 3.51

SMILES: COc1nc2ccc(Br)cc2c2c1C(C)(OCC(O)Cn1ccc(-c3ccc(C)c(C)c3)n1)c1ccccc1-2 (stereo not drawn)
- MIC99 [3]: 5 µM (≈ 2.92 µg/mL)
- inhibition of growth at 6.25 µg/mL [4]: 40 to 88%

SMILES: CO[C@H]1/C=C/O[C@@]2(C)Oc3c(C)c(O)c4c(O)c(c(/C=N/N5CCN(C)CC5)c(O)c4c3C2=O)NC(=O)/C(C)=C\C=C\[C@H](C)[C@H](O)[C@@H](C)[C@@H](O)[C@@H](C)[C@H](OC(C)=O)[C@@H]1C [RIFAMPIN]
- MIC [1]: 0.2 to 4 mg/L (≈ 0.243 to 4.86 µM)

SMILES: CCOC(=O)C1=C(C)NC(=O)NC1c1cn(-c2ccccc2)nc1-c1ccc([N+](=O)[O-])cc1 (stereo not drawn)
- MIC [5]: 0.02 mg/L (≈ 0.0447 µM)

SMILES: CC[C@@H](CO)NCCN[C@@H](CC)CO [ETHAMBUTOL]
- MIC [2]: 3.13 mg/L
- MIC [1]: 0.2 to 4 mg/L (≈ 0.979 to 19.6 µM)

SMILES: COc1ccc(C2C(Cl)C(=O)N2C(=O)NCCCn2ncc3ccc([N+](=O)[O-])cc32)cc1 (stereo not drawn)
- MIC [1]: 6.25 to 50 mg/L (≈ 13.7 to 109 µM)

SMILES: N#Cc1ccc(-c2nnc(-c3n[nH]cc3-c3ccc(Cl)cc3)o2)cc1
- MIC [6]: 25 mg/L (≈ 71.9 µM)
- Ratio [7]: 4

SMILES: O=C(NCCCn1ncc2ccc([N+](=O)[O-])cc21)N1C(=O)C(Cl)C1c1ccccc1[N+](=O)[O-] (stereo not drawn)
- MIC [1]: 6.25 to 50 mg/L (≈ 13.2 to 106 µM)

SMILES: Cc1nn(-c2ccccc2)c2c1C(c1cccc([N+](=O)[O-])c1)c1c(nc[nH]c1=O)O2 (stereo not drawn)
- inhibition of growth at 62.5 µg/mL [8]: 98%

SMILES: O=C(NCCCn1ncc2ccc([N+](=O)[O-])cc21)N1C(=O)C(Cl)C1c1ccc(Cl)cc1 (stereo not drawn)
- MIC [1]: 6.25 mg/L (≈ 13.5 µM)

SMILES: O=C(NCCCn1ncc2ccc([N+](=O)[O-])cc21)N1C(=O)C(Cl)C1c1ccc([N+](=O)[O-])cc1 (stereo not drawn)
- MIC [1]: 6.25 to 50 mg/L (≈ 13.2 to 106 µM)

SMILES: O=C(NCCCn1ncc2ccc([N+](=O)[O-])cc21)N1C(=O)C(Cl)C1c1ccccc1 (stereo not drawn)
- MIC [1]: 6.25 to 50 mg/L (≈ 14.6 to 117 µM)

SMILES: Cc1ccc(C2C(Cl)C(=O)N2C(=O)NCCCn2ncc3ccc([N+](=O)[O-])cc32)cc1 (stereo not drawn)
- MIC [1]: 6.25 to 50 mg/L (≈ 14.1 to 113 µM)

SMILES: Cc1ccccc1C1C(Cl)C(=O)N1C(=O)NCCCn1ncc2ccc([N+](=O)[O-])cc21 (stereo not drawn)
- MIC [1]: 6.25 to 50 mg/L (≈ 14.1 to 113 µM)

SMILES: Cc1cc(-n2nc(C(=O)NCc3ccc(OC(F)(F)F)cc3)cc2-c2cccnc2)c2cccc(C(F)(F)F)c2n1
- MIC [2]: 3.13 mg/L
- Ratio [9]: 16

SMILES: Fc1ccc(-c2nnc(-c3n[nH]cc3-c3ccc(Cl)cc3)o2)cc1
- MIC [6]: 25 mg/L (≈ 73.4 µM)
- Ratio [7]: 4

SMILES: CC1=NN(C(=O)c2cc(-c3ccc(Cl)cc3)n[nH]2)C(=O)/C1=N\Nc1ccc(F)cc1
- MIC [2]: 0.35 mg/L
- pIC50 (HepG2): < 3.30

SMILES: O=C(NCCCn1ncc2ccc([N+](=O)[O-])cc21)N1C(=O)C(Cl)C1c1cccc([N+](=O)[O-])c1 (stereo not drawn)
- MIC [1]: 6.25 to 50 mg/L (≈ 13.2 to 106 µM)

SMILES: COc1ccc(-n2cc(Cn3ncc4c3CCN(C(=O)Nc3ccccc3)C4)nn2)cc1
- MIC [2]: 24.7 µM
- MIC [10]: 24.7 µM (≈ 10.6 µg/mL)
- MIC [11]: 24.7 µM (≈ 10.6 µg/mL)
- pIC50 (Pantothenate synthetase): 6.00

SMILES: O=C(NCCCn1ncc2ccc([N+](=O)[O-])cc21)N1C(=O)C(Cl)C1c1cccc(Br)c1 (stereo not drawn)
- MIC [1]: 6.25 to 50 mg/L (≈ 12.3 to 98.7 µM)

SMILES: Cc1cc(C)n(Cc2ccc(C(=O)NCc3ccc(F)cc3Cl)cc2)n1
- pIC50 [12]: 7.40

SMILES: CCOC(=O)C1=C(C)NC(=O)NC1c1cn(-c2ccccc2)nc1-c1ccc(F)cc1 (stereo not drawn)
- MIC [5]: 0.02 mg/L (≈ 0.0476 µM)

SMILES: O=C(NCCCn1ncc2ccc([N+](=O)[O-])cc21)N1C(=O)C(Cl)C1c1cccc(Cl)c1 (stereo not drawn)
- MIC [1]: 6.25 to 50 mg/L (≈ 13.5 to 108 µM)

SMILES: NNC(=O)c1ccncc1 [ISONIAZID]
- MIC [2]: 0.03 mg/L
- MIC99 [3]: 1.86 µM (≈ 0.255 µg/mL)
- MIC [5]: 0.03 mg/L (≈ 0.219 µM)
- MIC [1]: 0.2 to 4 mg/L (≈ 1.46 to 29.2 µM)

SMILES: O=C(NCCCn1ncc2ccc([N+](=O)[O-])cc21)N1C(=O)C(Cl)C1c1ccc(Br)cc1 (stereo not drawn)
- MIC [1]: 6.25 to 50 mg/L (≈ 12.3 to 98.7 µM)

SMILES: Cc1cc(-n2nc(C(=O)NCC(F)(F)F)cc2-c2cccnc2)c2cccc(C(F)(F)F)c2n1
- MIC [2]: 3.13 mg/L
- Ratio [9]: 16

SMILES: O=C(NCCCn1ncc2ccc([N+](=O)[O-])cc21)N1C(=O)C(Cl)C1c1ccccc1Br (stereo not drawn)
- MIC [1]: 6.25 to 50 mg/L (≈ 12.3 to 98.7 µM)

SMILES: O=C(NCCCn1ncc2ccc([N+](=O)[O-])cc21)N1C(=O)C(Cl)C1c1cccc(O)c1 (stereo not drawn)
- MIC [1]: 6.25 to 50 mg/L (≈ 14.1 to 113 µM)

SMILES: Nc1nc(-c2ccc(O)cc2)cc(-c2cn(-c3ccccc3)nc2-c2ccc(F)cc2)n1
- IC90 [6]: 0.88 mg/L (≈ 2.08 µM)

SMILES: O=C(NCCCn1ncc2ccc([N+](=O)[O-])cc21)N1C(=O)C(Cl)C1c1ccc(O)cc1 (stereo not drawn)
- MIC [1]: 6.25 to 50 mg/L (≈ 14.1 to 113 µM)

SMILES: O=C(NCCCn1ncc2ccc([N+](=O)[O-])cc21)N1C(=O)C(Cl)C1c1ccccc1O (stereo not drawn)
- MIC [1]: 6.25 to 50 mg/L (≈ 14.1 to 113 µM)

SMILES: COc1ccccc1C1C(Cl)C(=O)N1C(=O)NCCCn1ncc2ccc([N+](=O)[O-])cc21 (stereo not drawn)
- MIC [1]: 6.25 to 50 mg/L (≈ 13.7 to 109 µM)

SMILES: O=C(NCCCn1ncc2ccc([N+](=O)[O-])cc21)N1C(=O)C(Cl)C1c1ccccc1Cl (stereo not drawn)
- MIC [1]: 6.25 to 50 mg/L (≈ 13.5 to 108 µM)

SMILES: Cc1cccc(C2C(Cl)C(=O)N2C(=O)NCCCn2ncc3ccc([N+](=O)[O-])cc32)c1 (stereo not drawn)
- MIC [1]: 6.25 to 50 mg/L (≈ 14.1 to 113 µM)

SMILES: NC(=O)c1cnccn1 [PYRAZINAMIDE]
- MIC [2]: 50 mg/L
- MIC [6]: 100 mg/L (≈ 812 µM)
- MIC [1]: 0.2 to 4 mg/L (≈ 1.62 to 32.5 µM)

SMILES: Cc1nn(-c2ccccc2)c2c1C(c1cccc([N+](=O)[O-])c1)c1c(N)nc(=O)[nH]c1O2 (stereo not drawn)
- inhibition of growth at 62.5 µg/mL [8]: 98%
